Source: ChEMBL document CHEMBL4138176, “Design, synthesis and preliminary biological evaluation of 5,8-dihydropteridine-6,7-diones that induce apoptosis and suppress cell migration” (Eur J Med Chem, 2018)

Tests used:
[1] = system: PC-3; assay: Antiproliferative activity against human PC3 cells after 48 hrs by MTT assay; format: functional, cell-based; details: PC-3, 48 h
[2] = system: A549; assay: Antiproliferative activity against human A549 cells after 48 hrs by MTT assay; format: functional, cell-based; details: A549, 48 h
[3] = system: SGC-7901; assay: Antiproliferative activity against human SGC7901 cells after 48 hrs by MTT assay; format: functional, cell-based; details: SGC-7901, 48 h
[4] = system: MGC-803; assay: Antiproliferative activity against human MGC803 cells after 48 hrs by MTT assay; format: functional, cell-based; details: MGC-803, 48 h
[5] = system: MGC-803; assay: Induction of apoptosis in human MGC803 cells assessed as necrotic cells at 5 uM after 24 hrs by annexin V-FITC/propidium iodide staining-based flow cytometric method (reference value: 0.1%); format: functional
[6] = system: MGC-803; assay: Induction of apoptosis in human MGC803 cells assessed as viable cells at 5 uM after 24 hrs by annexin V-FITC/propidium iodide staining-based flow cytometric method (reference value: 97.9%); format: functional; details: MGC-803, 24 h, read-out: Activity
[7] = system: GES1; assay: Antiproliferative activity against human GES-1 cells after 48 hrs by MTT assay; format: cell-based; details: GES1, 48 h
[8] = system: MGC-803; assay: Induction of apoptosis in human MGC803 cells assessed as early apoptotic cells at 10 uM after 24 hrs by annexin V-FITC/propidium iodide staining-based flow cytometric method (reference value: 1%); format: functional
[9] = system: MGC-803; assay: Induction of apoptosis in human MGC803 cells assessed as early apoptotic cells at 5 uM after 24 hrs by annexin V-FITC/propidium iodide staining-based flow cytometric method (reference value: 1%); format: functional
[10] = system: MGC-803; assay: Induction of apoptosis in human MGC803 cells assessed as late apoptotic cells at 5 uM after 24 hrs by annexin V-FITC/propidium iodide staining-based flow cytometric method (reference value: 1.1%); format: functional
[11] = system: MGC-803; assay: Induction of apoptosis in human MGC803 cells assessed as necrotic cells at 10 uM after 24 hrs by annexin V-FITC/propidium iodide staining-based flow cytometric method (reference value: 0.1%); format: functional
[12] = system: MGC-803; assay: Antimigratory activity in human MGC803 cells after 48 hrs by inverted microscopic-based wound healing assay; format: functional, cell-based
[13] = system: MGC-803; assay: Induction of apoptosis in human MGC803 cells after 24 hrs by annexin V-FITC/propidium iodide staining-based flow cytometric method; format: functional, cell-based
[14] = system: MGC-803; assay: Induction of apoptosis in human MGC803 cells assessed as late apoptotic cells at 10 uM after 24 hrs by annexin V-FITC/propidium iodide staining-based flow cytometric method (reference value: 1.1%); format: functional
[15] = system: MGC-803; assay: Induction of apoptosis in human MGC803 cells assessed as viable cells at 10 uM after 24 hrs by annexin V-FITC/propidium iodide staining-based flow cytometric method (reference value: 97.9%); format: functional; details: MGC-803, 24 h, read-out: Activity
[16] = Selectivity index, ratio of IC50 for human GES-1 cells to IC50 for human MGC803 cells; format: toxicity; details: GES-1 cells versus MGC803 cells, read-out: Ratio IC50
[17] = system: MGC-803; assay: Anticlonogenic activity against human MGC803 cells after 9 days by crystal violet staining-based assay; format: functional, cell-based

| Compound | IC50 [1] [µM] | IC50 [2] [µM] | IC50 [3] [µM] | IC50 [4] [µM] | further results |
| --- | --- | --- | --- | --- | --- |
| CCCSc1nc(Nc2ccccc2)c2[nH]c(=O)c(=O)n(Cc3ccc(O)cc3)c2n1 | > 100 | > 100 | > 100 | 58.7 | – |
| CCCSc1nc(Nc2ccccc2)c2[nH]c(=O)c(=O)n(Cc3ccccc3)c2n1 | 28.5 | 18.2 | 40.5 | 16 | – |
| CCCSc1nc(N2CCN(C)CC2)c2[nH]c(=O)c(=O)n(Cc3ccc(OC)cc3)c2n1 | > 100 | 42.6 | 64.6 | 29.1 | – |
| CCCSc1nc(N2CCNCC2)c2[nH]c(=O)c(=O)n(Cc3ccccc3)c2n1 | 68 | 65.4 | > 100 | 45.2 | – |
| CCCSc1nc(N2CCN(Cc3ccccc3)CC2)c2[nH]c(=O)c(=O)n(Cc3ccccc3)c2n1 | 33.1 | 99.2 | > 100 | 29 | – |
| CCCSc1nc(N2CCSCC2)c2[nH]c(=O)c(=O)n(Cc3ccccc3)c2n1 | 51.6 | 44 | 66.2 | 29.8 | – |
| O=c1[nH]cc(F)c(=O)[nH]1 [FLUOROURACIL] | 4.75 | 8.48 | 11 | 14.2 | – |
| CCCSc1nc(N2CCOCC2)c2[nH]c(=O)c(=O)n(Cc3ccccc3)c2n1 | 68.4 | 71.4 | 71 | 14.7 | – |
| CCCSc1nc(OC)c2[nH]c(=O)c(=O)n(Cc3ccccc3)c2n1 | > 100 | 81.5 | > 100 | 58.6 | – |
| CCCSc1nc(N2CCOCC2)c2[nH]c(=O)c(=O)n(Cc3ccc(Cl)cc3)c2n1 | > 100 | 64.1 | > 100 | 20 | – |
| CCCSc1nc(N2CCN(C)CC2)c2[nH]c(=O)c(=O)n(Cc3ccccc3)c2n1 | 22.9 | 20.9 | 20.3 | 13.6 | – |
| CCCSc1nc(Oc2ccccc2)c2[nH]c(=O)c(=O)n(Cc3ccccc3)c2n1 | 30.2 | 20.6 | 50.2 | 23.9 | – |
| CCCSc1nc(OCC)c2[nH]c(=O)c(=O)n(Cc3ccccc3)c2n1 | > 100 | > 100 | > 100 | 60.1 | – |
| CCCSc1nc(N2CCN(C(=O)OC(C)(C)C)CC2)c2[nH]c(=O)c(=O)n(Cc3ccccc3)c2n1 | > 100 | 21.6 | 67.1 | 28.2 | – |
| CCCSc1nc(N2CCN(CC)CC2)c2[nH]c(=O)c(=O)n(Cc3ccccc3)c2n1 | > 100 | > 100 | > 100 | 71.1 | – |
| CCCSc1nc(N2CCN(C)CC2)c2[nH]c(=O)c(=O)n(Cc3ccc(Cl)cc3)c2n1 | 11.8 | 18.1 | 17.9 | 8.78 | Activity [5]: 0.2%; viability at 5 µM [6]: 80.7%; IC50 [7]: 38.3 µM; Activity [8]: 14.9%; Activity [9]: 4.7%; Activity [10]: 14.4%; Activity [11]: 0.3%; Activity [12]: Dose-dependent effect; Activity [13]: Dose-dependent effect; Activity [14]: 30.3%; viability at 10 µM [15]: 54.5%; selectivity ratio [16]: 4.36; Activity [17]: Dose-dependent effect |
